{"source": "patent US20240207236A1", "about": "“COMPOUND FOR PREVENTING OR TREATING DIABETES” (ONCOCROSS CO., LTD., priority 2021, published 2024)", "key": {"[1]": {"test": "Drinking water intake of mice in STZ-induced insulin-resistant diabetes model", "type": "in vivo, mice (C57BL/6)", "set-up": "unit not given here", "experimental": "(§1) STZ (Sigma-aldrich, S0130, 40 mg/kg b.w., in 0.1 M citrate buffer pH 4.5) was intraperitoneally administered to 9-week-old male mice (C57BL/6) once/1 day for 5 days to perform a first disease induction. After 7 weeks of the first induction, a second induction was performed using the same method as the first induction. For 5 days of an STZ administration period for the first induction, 10% sucrose was administered as drinking water. In addition, after 14 days of the second administration, blood sugar was confirmed to confirm the induction rate, and the induced animals were separated into groups. Experimental substances (R)-4-{(R)-1-[7-(3,4,5-trimethoxy-phenyl)-[1,6] naphthyridine-5-yloxy]-ethyl}pyrrolidine-2-one (BI-1002494) and cromolyn (OC-101) were administered orally into the stomach at 10 mL/kg using an oral administration syringe (sonde) before 16:00 daily for 12 weeks at a frequency of 7 days/week at doses shown in Table 1 below, respectively, and dexamethasone was orally administered as a positive control substance."}, "[2]": {"system": "animal model of insulin-resistant diabetes", "test": "Histopathological change of liver, kidney and pancreas (H&E)", "type": "in vivo, mice (C57BL/6)", "conditions": "for Kidney Medullar apoptosis / Kidney Medullar mineralization / Kidney NHL / Kidney bowman's capsule hyperplasia / Kidney pappillary mineralization / Liver Apoptosis / Liver Cytoplasmic glycogen / Liver Eosinophlic focus of cellular alteration / Liver Mononuclear cell infiltrate / Liver NHL / Pancrease Apoptosis / Pancrease NHL / Pancrease islet degeneration / Pancrease islet hypertrophy / Pancrease islet, mononuclear cell infillitrate: count in group of 10 animals", "experimental": "as §1\nAt the end of the observation period, the mice in each group of Example 1 were confirmed to be dead, and the liver, kidney, and pancreas were extracted and fixed with 10% neutral buffered formalin (NBF) in at least 20 times the tissue volume. The fixed tissue was sectioned to a thickness of approximately 4 mm and then produced into a paraffin block through general tissue processing and embedding processes. Thereafter, the tissue was sectioned to a thickness of 4 μm using a rotary microtome, and then H&E staining was performed, and histopathological changes were observed."}, "[3]": {"conditions": "administered groups 12.5-50 mg/kg, Table 8 and FIG. 2"}}, "data": [{"compound": "COc1cc(-c2cc3ncccc3c(O[C@H](C)[C@H]3CNC(=O)C3)n2)cc(OC)c1OC", "note": "[BI-1002494, (R)-4-{(R)-1-[7-(3,4,5-trimethoxy-phenyl)-[1,6]naphthyridine-5-yloxy]-ethyl}pyrrolidine-2-one]", "values": [{"measurement": "drinking water intake, Mean", "setting": "[1]; 12.5 mg/kg/day oral, week 1", "result": 7.91}, {"measurement": "drinking water intake, Mean", "setting": "[1]; 12.5 mg/kg/day oral, week 2", "result": 7.41}, {"measurement": "drinking water intake, Mean", "setting": "[1]; 12.5 mg/kg/day oral, week 4", "result": 7.08}, {"measurement": "drinking water intake, Mean", "setting": "[1]; 12.5 mg/kg/day oral, week 5", "result": 7.16}, {"measurement": "drinking water intake, Mean", "setting": "[1]; 12.5 mg/kg/day oral, week 6", "result": 7.34}, {"measurement": "drinking water intake, Mean", "setting": "[1]; 12.5 mg/kg/day oral, week 7", "result": 7.24}, {"measurement": "drinking water intake, Mean", "setting": "[1]; 12.5 mg/kg/day oral, week 8", "result": 6.99}, {"measurement": "drinking water intake, Mean", "setting": "[1]; 12.5 mg/kg/day oral, week 9", "result": 7.40}, {"measurement": "drinking water intake, Mean", "setting": "[1]; 25 mg/kg/day oral, week 0", "result": 7.07}, {"measurement": "drinking water intake, Mean", "setting": "[1]; 25 mg/kg/day oral, week 1", "result": 7.62}, {"measurement": "drinking water intake, Mean", "setting": "[1]; 25 mg/kg/day oral, week 3", "result": 7.38}, {"measurement": "drinking water intake, Mean", "setting": "[1]; 25 mg/kg/day oral, week 4", "result": 6.73}, {"measurement": "drinking water intake, Mean", "setting": "[1]; 25 mg/kg/day oral, week 5", "result": 7.19}, {"measurement": "drinking water intake, Mean", "setting": "[1]; 25 mg/kg/day oral, week 6", "result": 7.34}, {"measurement": "drinking water intake, Mean", "setting": "[1]; 25 mg/kg/day oral, week 7", "result": 7.69}, {"measurement": "drinking water intake, Mean", "setting": "[1]; 25 mg/kg/day oral, week 8", "result": 7.43}, {"measurement": "drinking water intake, Mean", "setting": "[1]; 25 mg/kg/day oral, week 9", "result": 7.54}, {"measurement": "drinking water intake, Mean", "setting": "[1]; 25 mg/kg/day oral, week 10", "result": 7.15}, {"measurement": "drinking water intake, Mean", "setting": "[1]; 50 mg/kg/day oral, week 0", "result": 7.27}, {"measurement": "drinking water intake, Mean", "setting": "[1]; 50 mg/kg/day oral, week 1", "result": 7.04}, {"measurement": "drinking water intake, Mean", "setting": "[1]; 50 mg/kg/day oral, week 3", "result": 6.95}, {"measurement": "drinking water intake, Mean", "setting": "[1]; 50 mg/kg/day oral, week 4", "result": 7.13}, {"measurement": "drinking water intake, Mean", "setting": "[1]; 50 mg/kg/day oral, week 5", "result": 6.48}, {"measurement": "drinking water intake, Mean", "setting": "[1]; 50 mg/kg/day oral, week 9", "result": 6.51}, {"measurement": "drinking water intake, Mean", "setting": "[1]; 50 mg/kg/day oral, week 10", "result": 6.22}, {"measurement": "Kidney Medullar apoptosis", "setting": "[2]; 12.5 mg/kg (G4)", "result": 3}, {"measurement": "Kidney Medullar mineralization", "setting": "[2]; 12.5 mg/kg (G4)", "result": 0}, {"measurement": "Kidney NHL", "setting": "[2]; 12.5 mg/kg (G4)", "result": 7}, {"measurement": "Kidney bowman's capsule hyperplasia", "setting": "[2]; 12.5 mg/kg (G4)", "result": 0}, {"measurement": "Kidney pappillary mineralization", "setting": "[2]; 12.5 mg/kg (G4)", "result": 0}, {"measurement": "Liver Apoptosis", "setting": "[2]; 12.5 mg/kg (G4)", "result": 2}, {"measurement": "Liver Cytoplasmic glycogen", "setting": "[2]; 12.5 mg/kg (G4)", "result": 1}, {"measurement": "Liver Eosinophlic focus of cellular alteration", "setting": "[2]; 12.5 mg/kg (G4)", "result": 0}, {"measurement": "Liver Mononuclear cell infiltrate", "setting": "[2]; 12.5 mg/kg (G4)", "result": 1}, {"measurement": "Liver NHL", "setting": "[2]; 12.5 mg/kg (G4)", "result": 7}, {"measurement": "Pancrease Apoptosis", "setting": "[2]; 12.5 mg/kg (G4)", "result": 1}, {"measurement": "Pancrease NHL", "setting": "[2]; 12.5 mg/kg (G4)", "result": 5}, {"measurement": "Pancrease islet degeneration", "setting": "[2]; 12.5 mg/kg (G4)", "result": 2}, {"measurement": "Pancrease islet hypertrophy", "setting": "[2]; 12.5 mg/kg (G4)", "result": 1}, {"measurement": "Pancrease islet, mononuclear cell infillitrate", "setting": "[2]; 12.5 mg/kg (G4)", "result": 1}, {"measurement": "Kidney Medullar apoptosis", "setting": "[2]; 25 mg/kg (G5)", "result": 2}, {"measurement": "Kidney Medullar mineralization", "setting": "[2]; 25 mg/kg (G5)", "result": 1}, {"measurement": "Kidney NHL", "setting": "[2]; 25 mg/kg (G5)", "result": 7}, {"measurement": "Kidney bowman's capsule hyperplasia", "setting": "[2]; 25 mg/kg (G5)", "result": 0}, {"measurement": "Kidney pappillary mineralization", "setting": "[2]; 25 mg/kg (G5)", "result": 0}, {"measurement": "Liver Apoptosis", "setting": "[2]; 25 mg/kg (G5)", "result": 3}, {"measurement": "Liver Cytoplasmic glycogen", "setting": "[2]; 25 mg/kg (G5)", "result": 0}, {"measurement": "Liver Eosinophlic focus of cellular alteration", "setting": "[2]; 25 mg/kg (G5)", "result": 0}, {"measurement": "Liver Mononuclear cell infiltrate", "setting": "[2]; 25 mg/kg (G5)", "result": 2}, {"measurement": "Liver NHL", "setting": "[2]; 25 mg/kg (G5)", "result": 7}, {"measurement": "Pancrease Apoptosis", "setting": "[2]; 25 mg/kg (G5)", "result": 0}, {"measurement": "Pancrease NHL", "setting": "[2]; 25 mg/kg (G5)", "result": 8}, {"measurement": "Pancrease islet degeneration", "setting": "[2]; 25 mg/kg (G5)", "result": 1}, {"measurement": "Pancrease islet hypertrophy", "setting": "[2]; 25 mg/kg (G5)", "result": 1}, {"measurement": "Pancrease islet, mononuclear cell infillitrate", "setting": "[2]; 25 mg/kg (G5)", "result": 0}, {"measurement": "Kidney Medullar apoptosis", "setting": "[2]; 50 mg/kg (G6, G7)", "result": 1}, {"measurement": "Kidney Medullar mineralization", "setting": "[2]; 50 mg/kg (G6, G7)", "result": 2}, {"measurement": "Kidney NHL", "setting": "[2]; 50 mg/kg (G6, G7)", "result": 7}, {"measurement": "Kidney bowman's capsule hyperplasia", "setting": "[2]; 50 mg/kg (G6, G7)", "result": 0}, {"measurement": "Kidney pappillary mineralization", "setting": "[2]; 50 mg/kg (G6, G7)", "result": 0}, {"measurement": "Liver Apoptosis", "setting": "[2]; 50 mg/kg (G6, G7)", "result": 2}, {"measurement": "Liver Cytoplasmic glycogen", "setting": "[2]; 50 mg/kg (G6, G7)", "result": 0}, {"measurement": "Liver Eosinophlic focus of cellular alteration", "setting": "[2]; 50 mg/kg (G6, G7)", "result": 0}, {"measurement": "Liver Mononuclear cell infiltrate", "setting": "[2]; 50 mg/kg (G6, G7)", "result": 1}, {"measurement": "Liver NHL", "setting": "[2]; 50 mg/kg (G6, G7)", "result": 8}, {"measurement": "Pancrease Apoptosis", "setting": "[2]; 50 mg/kg (G6, G7)", "result": 0}, {"measurement": "Pancrease NHL", "setting": "[2]; 50 mg/kg (G6, G7)", "result": 7}, {"measurement": "Pancrease islet degeneration", "setting": "[2]; 50 mg/kg (G6, G7)", "result": 1}, {"measurement": "Pancrease islet hypertrophy", "setting": "[2]; 50 mg/kg (G6, G7)", "result": 2}, {"measurement": "Pancrease islet, mononuclear cell infillitrate", "setting": "[2]; 50 mg/kg (G6, G7)", "result": 0}, {"measurement": "cytoplasmic glycogen in the liver", "setting": "[2]; [3]", "result": "reduced in the liver"}, {"measurement": "medullar apoptosis in the kidney", "setting": "[2]; [3]", "result": "reduced in the kidney in a dose-dependent manner"}]}]}
